The text below walks through data of patent EP2862575B1, “APPLICATION OF PICEATANNOL-3'-O-B-D-GLUCOPYRANOSIDE IN PREPARATION OF MEDICAMENTS FOR IMPROVING MICROCIRCULATION BLOCK” (KPC Pharmaceuticals, Inc., priority 2012, dated 2013).

Series [1] relates to human. Put plainly: maximum tolerated dose for human calculated from animal doses. It is filed as in vivo. The conditions noted are these: calculated on the basis of a body weight of 60 kg from maximum tolerated dose of intramuscular and intravenous injection for animals.
The subject of series [2] is beagle dog. Put plainly: acute toxicity test, gastric gavage, beagle dog. The conditions noted are these: within 24 h.
The nature of series [3]: solubility test (excess compound shaken to equilibrium, UV at 319 nm). It is filed as physicochemical. The conditions noted are these: 25±1°C, 72 h. The method, then:
A series of solutions of gastrodin or hydroxypropyl-β-cyclodextrin or a mixture of gastrodin and hydroxypropyl-β-cyclodextrin were prepared in volumetric flasks according to the concentrations specified in the tables below. Excessive piceatannol-3'-o-β-d-glucopyranoside was added to the solutions prepared above, which were then shaken at 25±1°C in a thermostatic water bath continuously for 72 h until equilibrium was reached. The solutions were precisely taken out and filtered through a 0.45µm filter. The filtered solutions were diluted to prepare test solutions containing 6µg piceatannol-3'-o-β-d-glucopyranoside per milliliter. Appropriate amount of control sample was precisely weighed out, dissolved in water and diluted to prepare a control solution. The absorbance values of both types of solutions were measured at 319 nm using UV spectrophotometry, from which the solubility can be calculated. The test results of solubility can be seen in the tables below: […]

Series [4] concerns mice. The series can be described thus: acute and long-term toxicity tests in mice. Type of series: in vivo. The conditions noted are these: administrated in a range of safe dose.
Series [5] concerns mouse. Put plainly: acute toxicity test, gastric gavage, mouse. The conditions noted are these: within 24 h.
Series [6] in a line: genotoxicity test.

Take `OCc1ccc(O[C@@H]2O[C@H](CO)[C@@H](O)[C@H](O)[C@H]2O)cc1` [Gastrodin, 4-hydroxymethylphenyl-β-D-glucopyranoside hemihydrate]: the “maximum tolerated dose for human” value in series [1] is on record as 33.249 g.

For the compound `OC[C@H]1O[C@@H](Oc2cc(/C=C/c3cc(O)cc(O)c3)ccc2O)[C@H](O)[C@@H](O)[C@@H]1O` [piceatannol-3'-o-β-d-glucopyranoside], the “single maximum dosage given by gastric gavage” value worked out at 5 g/kg.bw in series [2] and 13.33 g/kg.bw in series [5]. For the same compound, the “Solubility of piceatannol-3'-o-β-d-glucopyranoside” value in series [3] (Gastrodin 45 % + Hydroxypropyl-β-cyclodextrin 3 %) is 186.789 mg/mL; in series [3] (Gastrodin 50 % + Hydroxypropyl-β-cyclodextrin 3 %), 188.029 mg/mL; in series [3] (Hydroxypropyl-β-cyclodextrin 45 %), 180.509 mg/mL; in series [3] (Hydroxypropyl-β-cyclodextrin 50 %) it was 183.10 mg/mL. Also, in series [4], the toxic effect entry is listed as “no toxic effect observed”. Besides, in series [6], the “chromosome aberration or mutagenesis” value is on record as “no chromosome aberration or mutagenesis observed”.
